In ChEMBL document CHEMBL1201862, “PubChem BioAssay data set” (2004):
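1) Cells in 96-well plates. 2) Compound, 48 h, 5 concentrations. 3) Linear interpolation between surrounding doses. 4) Unreached endpoint = highest concentration. Here, GI50 denotes the concentration required for 50% inhibition of growth.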 The source made the active and inactive calls. No stated cut-off is given here; in the data, active = GI50 up to about 1.1 µM and inactive = higher.

Assays:
Assay in all cases: NCI tumour cell line growth inhibition, 48 h
SW-620 = tested on: SW-620
UO-31 = tested on: UO-31
ACHN = tested on: ACHN
A498 = tested on: A498
T47D = tested on: T47D
RPMI-8226 = tested on: RPMI-8226
RXF 393 = tested on: RXF 393
786-0 = tested on: 786-0
HOP-92 = tested on: HOP-92
TK-10 = tested on: TK-10
MDA-N = tested on: MDA-N
K562 = tested on: K562
SF-539 = tested on: SF-539
LOX IMVI = tested on: LOX IMVI
HCT-15 = tested on: HCT-15
SNB-75 = tested on: SNB-75
OVCAR-4 = tested on: OVCAR-4
SK-MEL-5 = tested on: SK-MEL-5
U-251 = tested on: U-251
SF-295 = tested on: SF-295
NCI-H226 = tested on: NCI-H226
A549 = tested on: A549
SK-MEL-2 = tested on: SK-MEL-2
BT-549 = tested on: BT-549
CCRF-CEM = tested on: CCRF-CEM
IGROV-1 = tested on: IGROV-1
UACC-257 = tested on: UACC-257
HCT-116 = tested on: HCT-116
HOP-62 = tested on: HOP-62
OVCAR-5 = tested on: OVCAR-5
HL-60 = tested on: HL-60
NCI/ADR-RES = tested on: NCI/ADR-RES
KM12 = tested on: KM12
NCI-H460 = tested on: NCI-H460
DU-145 = tested on: DU-145
Malme-3M = tested on: Malme-3M
MDA-MB-231 = tested on: MDA-MB-231
SF-268 = tested on: SF-268
Hs-578T = tested on: Hs-578T
CAKI-1 = tested on: CAKI-1
EKVX = tested on: EKVX
HCC 2998 = tested on: HCC 2998
NCI-H23 = tested on: NCI-H23
MOLT-4 = tested on: MOLT-4
SNB-19 = tested on: SNB-19
HT-29 = tested on: HT-29
OVCAR-3 = tested on: OVCAR-3
OVCAR-8 = tested on: OVCAR-8
SR = tested on: SR
SK-MEL-28 = tested on: SK-MEL-28
COLO 205 = tested on: COLO 205
MDA-MB-435 = tested on: MDA-MB-435
SK-OV-3 = tested on: SK-OV-3
UACC-62 = tested on: UACC-62
PC-3 = tested on: PC-3
MCF7 = tested on: MCF7
SN12C = tested on: SN12C
M14 = tested on: M14
NCI-H522 = tested on: NCI-H522

In the case of `COC(=O)c1ccc(CCc2cc(O)ccc2O)cc1`, the GI50 (SW-620) is reported as 6.27 µM (inactive), the GI50 (UO-31) is reported as 2.02 µM (inactive) and the GI50 (ACHN) is reported as 13.3 µM (inactive). For the same compound, the GI50 (A498) was 37.6 µM (inactive), the GI50 (T47D) was 2.6 µM (inactive) and the GI50 (RPMI-8226) was 0.847 µM (active). The GI50 (RXF 393) was 7.89 µM (inactive), the GI50 (786-0) was 5.47 µM (inactive) and the GI50 (HOP-92) was 9.25 µM (inactive). The GI50 (TK-10) was 22.4 µM (inactive), the GI50 (MDA-N) was 5.94 µM (inactive) and the GI50 (K562) was 2.15 µM (inactive). The GI50 (SF-539) was 3.66 µM (inactive), the GI50 (LOX IMVI) was 6.12 µM (inactive) and the GI50 (HCT-15) was 8.79 µM. The GI50 (SNB-75) was 3.77 µM (inactive), the GI50 (OVCAR-4) was 10.8 µM (inactive) and the GI50 (SK-MEL-5) was 10.2 µM (inactive). The GI50 (U-251) was 7.46 µM (inactive), the GI50 (SF-295) was 21.3 µM (inactive) and the GI50 (NCI-H226) was 9.29 µM (inactive). For the same compound, the GI50 (A549) was 26.8 µM (inactive), the GI50 (SK-MEL-2) was 18.8 µM (inactive) and the GI50 (BT-549) was 5.7 µM (inactive). The GI50 (CCRF-CEM) was 0.67 µM (active), the GI50 (IGROV-1) was 6.49 µM (inactive) and the GI50 (UACC-257) was 13 µM (inactive). For the same compound, the GI50 (HCT-116) was 10.4 µM (inactive), the GI50 (HOP-62) was 12.2 µM (inactive) and the GI50 (OVCAR-5) was 19.2 µM (inactive). The GI50 (HL-60) was 0.959 µM (active), the GI50 (NCI/ADR-RES) was 12.8 µM (inactive) and the GI50 (KM12) was 5.52 µM (inactive). The GI50 (NCI-H460) was 37 µM (inactive), the GI50 (DU-145) was 32.4 µM (inactive) and the GI50 (Malme-3M) was 8.75 µM (inactive). For the same compound, the GI50 (MDA-MB-231) was 10.1 µM (inactive), the GI50 (SF-268) was 5.68 µM (inactive) and the GI50 (Hs-578T) was 16.1 µM (inactive). The GI50 (CAKI-1) was 4.06 µM (inactive), the GI50 (EKVX) was 13.3 µM (inactive) and the GI50 (HCC 2998) was 23.9 µM (inactive). For the same compound, the GI50 (NCI-H23) was 13.6 µM (inactive), the GI50 (MOLT-4) was 1.77 µM (inactive) and the GI50 (SNB-19) was 12 µM (inactive). For the same compound, the GI50 (HT-29) was 28.4 µM (inactive), the GI50 (OVCAR-3) was 2.96 µM (inactive) and the GI50 (OVCAR-8) was 2.85 µM (inactive). For the same compound, the GI50 (SR) was 2.44 µM (inactive), the GI50 (SK-MEL-28) was 16.6 µM (inactive) and the GI50 (COLO 205) was 23.9 µM (inactive). The GI50 (MDA-MB-435) was 6.08 µM (inactive), the GI50 (SK-OV-3) was 38 µM (inactive) and the GI50 (UACC-62) was 14.8 µM (inactive). For the same compound, the GI50 (PC-3) was 4.3 µM (inactive), the GI50 (MCF7) was 7.5 µM (inactive) and the GI50 (SN12C) was 7.98 µM (inactive). For the same compound, the GI50 (M14) was 10.6 µM (inactive) and the GI50 (NCI-H522) was 0.706 µM (active).
`C=C1C(=O)O[C@H]2C[C@@]3(C)[C@H](O)CCC(=C)[C@@H]3[C@@H](OC(C)=O)[C@H]12` was tested, and the GI50 (SW-620) was 4.85 µM (inactive), the GI50 (UO-31) was 13.5 µM (inactive) and the GI50 (ACHN) was 3.53 µM (inactive). The GI50 (A498) was 17.8 µM (inactive), the GI50 (T47D) was 4.65 µM (inactive) and the GI50 (RPMI-8226) was 5 µM (inactive). The GI50 (RXF 393) was 3.56 µM (inactive), the GI50 (786-0) was 5.85 µM (inactive) and the GI50 (HOP-92) was 2.71 µM (inactive). For the same compound, the GI50 (TK-10) was 6.15 µM (inactive), the GI50 (MDA-N) was 4.31 µM (inactive) and the GI50 (K562) was 2.63 µM (inactive). The GI50 (SF-539) was 0.409 µM (active), the GI50 (LOX IMVI) was 5.43 µM (inactive) and the GI50 (HCT-15) was 1.85 µM. For the same compound, the GI50 (SNB-75) was 13.1 µM (inactive), the GI50 (OVCAR-4) was 4.85 µM (inactive) and the GI50 (SK-MEL-5) was 12.1 µM (inactive). The GI50 (U-251) was 20.2 µM (inactive), the GI50 (SF-295) was 18.9 µM (inactive) and the GI50 (NCI-H226) was 15.2 µM (inactive). For the same compound, the GI50 (A549) was 14.7 µM (inactive), the GI50 (SK-MEL-2) was 15.9 µM (inactive) and the GI50 (BT-549) was 7.33 µM (inactive). For the same compound, the GI50 (CCRF-CEM) was 1 µM (active), the GI50 (IGROV-1) was 14.1 µM (inactive) and the GI50 (UACC-257) was 15.4 µM (inactive). For the same compound, the GI50 (HCT-116) was 3.66 µM (inactive), the GI50 (HOP-62) was 16.4 µM (inactive) and the GI50 (OVCAR-5) was 3.27 µM (inactive). For the same compound, the GI50 (HL-60) was 2.19 µM (inactive), the GI50 (NCI/ADR-RES) was 21.8 µM (inactive) and the GI50 (KM12) was 16.4 µM (inactive). For the same compound, the GI50 (NCI-H460) was 13.1 µM (inactive), the GI50 (DU-145) was 10.9 µM (inactive) and the GI50 (Malme-3M) was 1.45 µM (inactive). For the same compound, the GI50 (MDA-MB-231) was 16.1 µM (inactive), the GI50 (SF-268) was 19.2 µM (inactive) and the GI50 (Hs-578T) was 14.3 µM (inactive). The GI50 (CAKI-1) was 1.48 µM (inactive), the GI50 (EKVX) was 15.5 µM (inactive) and the GI50 (HCC 2998) was 15.1 µM (inactive). For the same compound, the GI50 (NCI-H23) was 10.7 µM (inactive), the GI50 (MOLT-4) was 3.13 µM (inactive) and the GI50 (SNB-19) was 12.9 µM (inactive). The GI50 (HT-29) was 5.92 µM (inactive), the GI50 (OVCAR-3) was 12.3 µM (inactive) and the GI50 (OVCAR-8) was 18.7 µM (inactive). For the same compound, the GI50 (SR) was 2.22 µM (inactive), the GI50 (SK-MEL-28) was 20 µM (inactive) and the GI50 (COLO 205) was 0.953 µM (active). For the same compound, the GI50 (MDA-MB-435) was 15.5 µM (inactive), the GI50 (SK-OV-3) was 30.2 µM (inactive) and the GI50 (UACC-62) was 15.9 µM (inactive). For the same compound, the GI50 (PC-3) was 16.5 µM (inactive), the GI50 (MCF7) was 1.51 µM (inactive) and the GI50 (SN12C) was 7.83 µM (inactive). The GI50 (M14) was 5.9 µM (inactive) and the GI50 (NCI-H522) was 1.73 µM (inactive).
